# Source: PubChem BioAssay (NCI)
#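 Each compound was tested at five concentrations against cells in 96-well plates for 48 hours. Here, GI50 denotes the concentration required for 50% inhibition of growth. At the TGI there is no net growth.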
# Experiments:
# Experiment in all cases: inhibition of tumour cell growth, NCI panel, 48 h
# NCI-H460 lung = tested on: NCI-H460 lung
# CCRF-CEM leukemia = tested on: CCRF-CEM leukemia
# IGROV1 ovarian = tested on: IGROV1 ovarian
# NCI-H522 lung = tested on: NCI-H522 lung
# MALME-3M melanoma = tested on: MALME-3M melanoma
# HCC-2998 colon = tested on: HCC-2998 colon
# NCI-H226 lung = tested on: NCI-H226 lung
# DU-145 prostate = tested on: DU-145 prostate
# SK-OV-3 ovarian = tested on: SK-OV-3 ovarian
# T-47D breast = tested on: T-47D breast
SMILES,TGI (NCI-H460 lung),TGI (CCRF-CEM leukemia),TGI (IGROV1 ovarian),TGI (NCI-H522 lung),TGI (MALME-3M melanoma),TGI (HCC-2998 colon),TGI (NCI-H226 lung),GI50 (DU-145 prostate),TGI (DU-145 prostate),GI50 (NCI-H460 lung),GI50 (CCRF-CEM leukemia),GI50 (IGROV1 ovarian),GI50 (NCI-H522 lung),GI50 (MALME-3M melanoma),GI50 (HCC-2998 colon),GI50 (NCI-H226 lung),GI50 (SK-OV-3 ovarian),TGI (SK-OV-3 ovarian),GI50 (T-47D breast),TGI (T-47D breast)
COc1ccc(/C=C2\CCC(C)(CN(C)C)C2=O)cc1OC (stereo not given),> 100 µM,> 100 µM,> 100 µM,> 100 µM,> 100 µM,> 100 µM,> 100 µM,,,,,,,,,,,,,
O=C(CC1SC(=Nc2ccccc2Cl)NC1=O)Nc1ccc(Cl)cc1Cl (stereo not given),> 100 µM,> 100 µM,> 100 µM,,> 100 µM,> 100 µM,> 100 µM,,,,,,,,,,,,,
Cc1ccc(NC(=O)CC2C(=O)Nc3ccccc3S2(=O)=O)c(C)c1 (stereo not given),33.8 µM,43.2 µM,28.8 µM,23.6 µM,45.9 µM,30.5 µM,35.9 µM,,,,,,,,,,,,,
N#CC1=C(/N=C/c2ccccc2)Oc2c(ccc3ccccc23)C1c1ccccc1 (stereo not given),> 39.3 µM,> 100 µM,> 100 µM,,> 100 µM,> 67.9 µM,> 100 µM,0.735 µM,> 64.3 µM,0.386 µM,0.462 µM,0.725 µM,0.298 µM,0.67 µM,1.2 µM,1.13 µM,0.534 µM,> 100 µM,,
O=c1[nH]cc(F)c(=O)n1C1OC(CO)C(O)C1O (stereo not given),> 100 µM,> 100 µM,,> 100 µM,> 100 µM,> 100 µM,> 100 µM,,,,,,,,,,,> 100 µM,,
O=C(O)/C=C/c1nc2ccccc2c(=O)o1,,> 100 µM,> 100 µM,> 100 µM,,> 100 µM,> 100 µM,,,,,,,,,,,> 100 µM,,
COc1ccc(-c2nc(/C=C3\SC(=NCc4ccccc4)NC3=O)c3ccccn23)cc1,2.24 µM,> 100 µM,4.22 µM,7.16 µM,,4.83 µM,10 µM,0.685 µM,1.81 µM,0.666 µM,2.83 µM,1.47 µM,0.79 µM,,1.68 µM,2.47 µM,2.05 µM,4.28 µM,1.26 µM,3.11 µM
NC(=O)NNC(=O)NC12CC3CC(CC(C3)C1)C2,> 100 µM,> 100 µM,> 100 µM,> 100 µM,> 100 µM,> 100 µM,> 100 µM,,,,,,,,,,,> 100 µM,,
NC(=O)c1csc(C2OC(COP(=O)(O)CP(=O)(O)OCC3OC(n4cnc5c(N)ncnc54)C(O)C3O)C(O)C2O)n1 (stereo not given),> 100 µM,> 100 µM,> 100 µM,> 100 µM,> 100 µM,> 100 µM,> 100 µM,,,,,,,,,,,> 100 µM,,
O=S(=O)(c1cccc(N=C=S)c1)c1cccc(N=C=S)c1,,,34.7 µM,32.8 µM,34.9 µM,46.7 µM,,,,,,,,,,,,37.3 µM,,
Cc1cc(C)nc(NS(=O)(=O)c2ccc(Nc3c4ccccc4nc4c(C(=O)Nc5ccc(S(=O)(=O)N=C(N)N)cc5)cccc34)cc2)n1,> 100 µM,> 100 µM,> 100 µM,> 100 µM,> 100 µM,> 100 µM,,,,,,,,,,,,> 100 µM,,
O=C1Nc2ccccc2N=CC1NC(=O)C(c1ccccc1)c1ccccc1 (stereo not given),> 100 µM,> 100 µM,> 100 µM,> 100 µM,> 100 µM,> 100 µM,> 100 µM,,,,,,,,,,,> 100 µM,,
CC12CCC(=O)N1c1ccc([N+](=O)[O-])cc1N2 (stereo not given),,> 100 µM,> 100 µM,> 100 µM,> 100 µM,,> 100 µM,,,,,,,,,,,> 100 µM,,
COc1ccc(CCC2c3cc(OC)c(OC)cc3CCN2C)cc1OC (stereo not given),> 100 µM,> 100 µM,> 100 µM,> 100 µM,> 100 µM,> 100 µM,> 100 µM,,,,,,,,,,,> 100 µM,,
O=S(=O)(/C=C/C(=C/c1ccccc1)S(=O)(=O)c1ccccc1)c1ccccc1,3.45 µM,3.05 µM,25 µM,2.85 µM,3.3 µM,3.45 µM,,,,,,,,,,,,2.79 µM,,
N#CCN1CCn2c1nsc2=S,> 100 µM,> 100 µM,> 100 µM,> 100 µM,,,> 100 µM,> 100 µM,> 100 µM,> 100 µM,1.6 µM,> 100 µM,64.7 µM,,,> 100 µM,> 100 µM,> 100 µM,> 100 µM,> 100 µM
COc1cc2c(cc1OCCCCN1CCN(C(=S)SCCC(C#N)(c3ccccc3)c3ccccc3)CC1)N=C[C@@H]1CCCN1C2=O,4.02 µM,> 100 µM,,0.642 µM,3.04 µM,,3.29 µM,,,1.25 µM,0.532 µM,,0.196 µM,1.36 µM,,1.26 µM,2.96 µM,9.81 µM,0.578 µM,> 100 µM

SMILES,TGI (NCI-H460 lung),TGI (CCRF-CEM leukemia),TGI (IGROV1 ovarian),TGI (NCI-H522 lung),TGI (MALME-3M melanoma),TGI (HCC-2998 colon),TGI (NCI-H226 lung),GI50 (DU-145 prostate),TGI (DU-145 prostate),GI50 (NCI-H460 lung),GI50 (CCRF-CEM leukemia),GI50 (IGROV1 ovarian),GI50 (NCI-H522 lung),GI50 (MALME-3M melanoma),GI50 (HCC-2998 colon),GI50 (NCI-H226 lung),GI50 (SK-OV-3 ovarian),TGI (SK-OV-3 ovarian),GI50 (T-47D breast),TGI (T-47D breast)
COc1ccc(NC(=O)C2CCC(CNS(=O)(=O)c3ccccc3)CC2)cc1OC (stereo not given),> 100 µM,> 100 µM,> 100 µM,> 100 µM,> 100 µM,> 100 µM,> 100 µM,> 100 µM,> 100 µM,> 100 µM,> 100 µM,> 100 µM,60.9 µM,40.3 µM,> 100 µM,> 100 µM,,,,
C[CH2][Sn]([CH2]C)([O]C(=O)c1ccccc1OC)[O][Sn]([CH2]C)([CH2]C)[O]C(=O)c1ccccc1OC,> 100 µM,> 100 µM,> 100 µM,14.7 µM,> 100 µM,> 100 µM,> 100 µM,,,> 100 µM,41.2 µM,> 100 µM,3.02 µM,27.6 µM,> 100 µM,> 100 µM,> 100 µM,> 100 µM,,
CCCCCO/N=C\c1c2c(O)c3c(O)c(C)c4c(c3c1O)C(=O)C(C)(O/C=C\C(OC)C(C)C(OC(C)=O)C(C)C(O)C(C)C(O)C(C)/C=C\C=C(\C)C(=O)N2)O4 (stereo not given),2.83 µM,10.2 µM,,,,3.08 µM,,1.93 µM,4.29 µM,1.51 µM,2.92 µM,,,,1.65 µM,,2.29 µM,6.84 µM,2.15 µM,5.33 µM
Cc1ccc(S(=O)(=O)N/N=C(/CC(=O)c2c(C)n([O-])c3ccccc3[n+]2=O)C(=O)Nc2ccccc2C)cc1,> 100 µM,,> 100 µM,> 100 µM,> 100 µM,> 100 µM,> 100 µM,,,,,,,,,,,> 100 µM,,
COCOCC/C=C/C=O,> 100 µM,> 100 µM,> 100 µM,> 100 µM,> 100 µM,> 100 µM,,,,,,,,,,,,> 100 µM,,
CC(=O)OCCOCNC(=S)N/N=C/c1cc(Br)cs1,> 100 µM,> 100 µM,> 100 µM,> 100 µM,> 100 µM,> 100 µM,> 100 µM,,,,,,,,,,,> 100 µM,,
O=C(c1nc2ccccc2[nH]c1=O)C(O)c1ccccc1 (stereo not given),> 100 µM,> 100 µM,> 100 µM,> 100 µM,> 100 µM,> 100 µM,> 100 µM,,,,,,,,,,,> 100 µM,,
Cc1ccc(C)c(N2C(=O)C(=O)C(c3nc4ccccc4s3)/C(=N/NC(=O)NN)C2=O)c1 (stereo not given),> 100 µM,> 100 µM,> 100 µM,> 100 µM,> 100 µM,> 100 µM,> 100 µM,,,,,,,,,,,> 100 µM,,
C=C1CCC2[C@@H](CCC3[C@]2(C)CCC[C@]3(C)C(=O)OC)C1CC=O (stereo not given in full),31.7 µM,35.2 µM,38.6 µM,31.8 µM,37.5 µM,,37.2 µM,,,,,,16.3 µM,,,,21.4 µM,37.7 µM,,
CN(CCNCc1ccccn1)CCNCc1ccccn1,9.54 µM,> 100 µM,12.6 µM,,3.94 µM,4.64 µM,4.2 µM,3.6 µM,12.4 µM,3.16 µM,3.87 µM,3.23 µM,,1.46 µM,2.17 µM,1.92 µM,2.24 µM,5.27 µM,3.43 µM,28 µM
COc1ccc(-c2cc(C(=O)Nc3ccc(C)c(C)c3)nc(NC#N)n2)cc1,> 100 µM,> 100 µM,> 100 µM,> 100 µM,> 100 µM,,,,,,,,,,,,,> 100 µM,,
CC1(c2ccccc2Cl)C(C#N)C(=O)NC(=O)C1C#N (stereo not given),> 100 µM,> 100 µM,> 100 µM,54 µM,> 100 µM,> 100 µM,98 µM,,,,,,,,,,,> 100 µM,,
COc1cc2c(cc1OC)-c1ncc3c(OC)c(OC)c(OC)cc3c1C2,61.3 µM,,,,,> 100 µM,,,,15.3 µM,,,,,47.7 µM,,18.9 µM,43.2 µM,40.8 µM,> 100 µM
COCCNC(=O)C1C(=O)C(=O)N(CCOC)C1=O (stereo not given),,> 100 µM,> 100 µM,> 100 µM,> 100 µM,> 100 µM,> 100 µM,,,,,,,,,,,> 100 µM,,
Cc1nc(C(=O)O)c2ccccc2n1,> 100 µM,> 100 µM,> 100 µM,,> 100 µM,> 100 µM,,,,,,,,,,,,> 100 µM,,
CCCCC1(C)C=C/C(=C2/C(=O)O/C(=C\C(=O)O)C2=O)O1 (stereo not given),> 100 µM,> 100 µM,> 100 µM,,> 100 µM,,> 100 µM,,,,,,,,,,,> 100 µM,,
